Legend:
[1] = biological target: T1, human recombinant bradykinin B1 receptor (Homo sapiens, UniProt P46663); test: Human recombinant bradykinin B1 receptor competitive radioligand binding; settings: hB1 expressed in CHO cells, [3H]-[Des-Arg10] Kallidin radioligand; read-out: B1 binding
T1 construct: host or cells: CHO cells, clone hB1-A5
T1 sequence (P46663 1-353): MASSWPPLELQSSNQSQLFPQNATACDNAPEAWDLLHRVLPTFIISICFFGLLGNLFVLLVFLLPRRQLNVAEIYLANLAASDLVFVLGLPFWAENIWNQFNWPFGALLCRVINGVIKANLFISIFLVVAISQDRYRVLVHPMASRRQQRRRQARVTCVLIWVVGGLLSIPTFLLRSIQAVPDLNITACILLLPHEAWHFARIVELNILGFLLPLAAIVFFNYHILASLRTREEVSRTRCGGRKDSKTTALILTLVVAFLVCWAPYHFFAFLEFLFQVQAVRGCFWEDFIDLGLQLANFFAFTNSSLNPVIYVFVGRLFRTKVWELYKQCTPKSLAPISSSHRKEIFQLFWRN
Method in brief: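 Competition radioligand binding on CHO-expressed hB1 membranes, using [3,4-prolyl-3,4-^3H(N)]-[Des-Arg^10] Kallidin as tracer, 15 min at 25° C. Excess Lys-des-Arg^9-Bradykinin (10 μM) set nonspecific binding. Sigmoidal fits of at least seven concentrations gave IC50, converted to Ki via Cheng-Prusoff; KD from Scatchard.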

[2] = biological target: T2, recombinant human B1 receptors (Homo sapiens, UniProt P46663); test: Functional assay: antagonist potency by cytosolic calcium measurement (plate reader fluorimeter) in CHO-B1 cells, agonist LysDABK; type: cell-based; settings: CHO-B1 cells, inhibition of LysDABK (EC80)-evoked [Ca2+]i elevation; read-out: B1 func.
T2 construct: host or cells: CHO (CHO-B1)
T2 sequence (P46663 1-353): T1 sequence (P46663 1-353)
Method in brief: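 IC50 is the concentration giving half-maximal inhibition of the LysDABK (EC80) calcium response, fitted from at least three experiments. CHO cells stably expressing human B1 were dye-loaded, exposed to compound for 20-25 min, then read by fluo-4 fluorescence (ΔF/F) at 37 °C.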

SMILES	Ki [1] [µM]	IC50 [2] [µM]
COc1ccc2c(c1)c(Cl)c(C#N)n2-c1ccc(CNC(=O)C2(NC(=O)c3cc(OC)no3)CC2)cc1 [Example 52, 3-Methoxy-isoxazole-5-carboxylic acid {1-[4-(3-chloro-2-cyano-5-methoxy-indol-1-yl)-benzylcarbamoyl]-cyclopropyl}-amide]	< 0.02	< 0.02
COc1cc(C(=O)NC2(C(=O)NCc3ccc(-n4c(-c5noc(C)n5)cc5cc(Cl)ccc54)cc3)CC2)on1 [Example 53, 3-Methoxy-isoxazole-5-carboxylic acid (1-{4-[5-chloro-2-(5-methyl-[1,2,4]oxadiazol-3-yl)-indol-1-yl]-benzylcarbamoyl}-cyclopropyl)-amide]	< 0.02	< 0.02
COC(=O)c1c(Cl)c2ccccc2n1-c1ccc(CNC(=O)C2(NC(=O)C(F)(F)F)CC2)c(F)c1 [Example 54, 3-Chloro-1-[3-fluoro-4-({[1-(2,2,2-trifluoro-acetylamino)-cyclopropanecarbonyl]-amino}-methyl)-phenyl]-1H-indole-2-carboxylic acid methyl ester]	< 0.02	< 0.02
COC(=O)c1c(Cl)c2ccccc2n1-c1ccc(CNC(=O)C2(NC(=O)c3cc(OC)no3)CC2)c(F)c1 [Example 55, 3-Chloro-1-{3-fluoro-4-[({1-[(3-methoxy-isoxazole-5-carbonyl)-amino]-cyclo-propanecarbonyl}-amino)-methyl]-phenyl}-1H-indole-2-carboxylic acid methyl ester]	< 0.02	< 0.02
COc1cc(C(=O)NC2(C(=O)NCc3ccc(-n4c(-c5nc(C)no5)cc5ccccc54)cn3)CC2)on1 [Example 56, 3-Methoxy-isoxazole-5-carboxylic acid [1-({5-[2-(3-methyl-[1,2,4]oxadiazol-5-yl)-indol-1-yl]-pyridin-2-ylmethyl}-carbamoyl)-cyclopropyl]-amide]	0.1 to 0.5	0.1 to 0.5
COc1cc(C(=O)NC2(C(=O)NCc3ccc(-n4c(-c5noc(C)n5)cc5ccccc54)cn3)CC2)on1 [Example 57, 3-Methoxy-isoxazole-5-carboxylic acid [1-({5-[2-(5-methyl-[1,2,4]oxadiazol-3-yl)-indol-1-yl]-pyridin-2-ylmethyl}-carbamoyl)-cyclopropyl]-amide]	0.02 to 0.1	0.02 to 0.1
COc1cc(C(=O)NC2(C(=O)NCc3ccc(-n4c(-c5nc(C)no5)c(Cl)c5ccccc54)cn3)CC2)on1 [Example 58, 3-Methoxy-isoxazole-5-carboxylic acid [1-({5-[3-chloro-2-(3-methyl-[1,2,4]oxadiazol-5-yl)-indol-1-yl]-pyridin-2-ylmethyl}-carbamoyl)-cyclopropyl]-amide]	< 0.02	< 0.02
COc1cc(C(=O)NC2(C(=O)NCc3ccc(-n4c(-c5nnn(C)n5)c(Cl)c5cc(F)ccc54)cn3)CC2)on1 [Example 59, 3-Methoxy-isoxazole-5-carboxylic acid [1-({5-[3-chloro-5-fluoro-2-(2-methyl-2H-tetrazol-5-yl)-indol-1-yl]-pyridin-2-ylmethyl}-carbamoyl)-cyclopropyl]-amide]	< 0.02	< 0.02
COc1cc(C(=O)NC2(C(=O)NCc3ccc(-n4c(-c5nnn(C)n5)c(Cl)c5ccccc54)cn3)CC2)on1 [Example 60]	< 0.02	< 0.02
COc1cc(C(=O)NC2(C(=O)NCc3ccc(-n4c(-c5noc(C)n5)cc5cc(F)ccc54)cn3)CC2)on1 [Example 61, 3-Methoxy-isoxazole-5-carboxylic acid [1-({5-[5-fluoro-2-(5-methyl-[1,2,4]oxadiazol-3-yl)-indol-1-yl]-pyridin-2-ylmethyl}-carbamoyl)-cyclopropyl]-amide]	< 0.02	< 0.02
COc1cc(C(=O)NC2(C(=O)NCc3ccc(-n4c(-c5noc(C)n5)c(Cl)c5cc(F)ccc54)cn3)CC2)on1 [Example 62, 3-Methoxy-isoxazole-5-carboxylic acid [1-({5-[3-chloro-5-fluoro-2-(5-methyl-[1,2,4]oxadiazol-3-yl)-indol-1-yl]-pyridin-2-ylmethyl}-carbamoyl)-cyclopropyl]-amide]	< 0.02	< 0.02
COc1ccc2c(c1)c(Cl)c(-c1noc(C)n1)n2-c1ccc(CNC(=O)C2(NC(=O)C(F)(F)F)CC2)cc1 [Example 63, 1-(2,2,2-Trifluoro-acetylamino)-cyclopropanecarboxylic acid 4-[3-chloro-5-methoxy-2-(5-methyl-[1,2,4]oxadiazol-3-yl)-indol-1-yl]-benzylamide]	< 0.02	< 0.02
COc1ccc2c(c1)c(Cl)c(-c1noc(C)n1)n2-c1ccc(CNC(=O)C2(NC(=O)c3cc(OC)no3)CC2)cc1 [Example 64, 3-Methoxy-isoxazole-5-carboxylic acid (1-{4-[3-chloro-5-methoxy-2-(5-methyl-[1,2,4]oxadiazol-3-yl)-indol-1-yl]-benzylcarbamoyl}-cyclopropyl)-amide]	< 0.02	< 0.02
Cc1nc(-c2c(Cl)c3cc(Cl)ccc3n2-c2ccc(CNC(=O)C3(NC(=O)C(F)(F)F)CC3)cc2)no1 [Example 65, 1-(2,2,2-Trifluoro-acetylamino)-cyclopropanecarboxylic acid 4-[3,5-dichloro-2-(5-methyl-[1,2,4]oxadiazo 1-3-yl)-indol-1-yl]-benzylamide]	< 0.02	< 0.02
COc1cc(C(=O)NC2(C(=O)NCc3ccc(-n4c(-c5noc(C)n5)c(Cl)c5cc(Cl)ccc54)cc3)CC2)on1 [Example 66, 3-Methoxy-isoxazole-5-carboxylic acid (1-{4-[3,5-dichloro-2-(5-methyl-[1,2,4]oxadiazol-3-yl)-indol-1-yl]-benzylcarbamoyl}-cyclopropyl)-amide]	< 0.02	< 0.02
COc1cc(C(=O)NC2(C(=O)NCc3ccc(-n4c(-c5noc(C)n5)c(Cl)c5cc(F)ccc54)cc3)CC2)on1 [Example 67, 3-Methoxy-isoxazole-5-carboxylic acid (1-{4-[3-chloro-5-fluoro-2-(5-methyl-[1,2,4]oxadiazol-3-yl)-indol-1-yl]-benzylcarbamoyl}-cyclopropyl)-amide]	< 0.02	< 0.02
COC(=O)c1c(Cl)c2c(F)cccc2n1-c1ccc(CNC(=O)C2(NC(=O)c3cc(OC)no3)CC2)cc1 [Example 68, 3-Chloro-4-fluoro-1-{4-[({1-[(3-methoxy-isoxazole-5-carbonyl)-amino]-cyclo-propanecarbonyl}-amino)-methyl]-phenyl}-1H-indole-2-carboxylic acid methyl ester]	< 0.02	< 0.02
COC(=O)c1c(Cl)c2c(F)cccc2n1-c1ccc(CNC(=O)C2(NC(=O)C(F)(F)F)CC2)cc1 [Example 69, 3-Chloro-4-fluoro-1-[4-({[1-(2,2,2-trifluoro-acetylamino)-cyclopropanecarbonyl]-amino}-methyl)-phenyl]-1H-indole-2-carboxylic acid methyl ester]	0.02 to 0.1	0.02 to 0.1
Cc1nc(-c2c(Cl)c3cc(Cl)ccc3n2-c2ccc(CNC(=O)C3(NC(=O)c4cccnc4Cl)CC3)cc2)no1 [Example 70, 2-Chloro-N-(1-{4-[3,5-dichloro-2-(5-methyl-[1,2,4]oxadiazol-3-yl)-indol-1-yl]-benzylcarbamoyl}-cyclopropyl)-nicotinamide]	< 0.02	< 0.02
Cc1nc(-c2c(Cl)c3cc(Cl)ccc3n2-c2ccc(CNC(=O)C3(NC(=O)c4cccc(F)c4)CC3)cc2)no1 [Example 71, N-(1-{4-[3,5-Dichloro-2-(5-methyl-[1,2,4]oxadiazol-3-yl)-indol-1-yl]-benzylcarbamoyl}-cyclopropyl)-3-fluoro-benzamide]	< 0.02	< 0.02
Cc1cnc(C(=O)NC2(C(=O)NCc3ccc(-n4c(-c5noc(C)n5)c(Cl)c5cc(Cl)ccc54)cc3)CC2)cn1 [Example 72, 5-Methyl-pyrazine-2-carboxylic acid (1-{4-[3,5-dichloro-2-(5-methyl-[1,2,4]oxadiazol-3-yl)-indol-1-yl]-benzylcarbamoyl}-cyclopropyl)-amide]	< 0.02	< 0.02
Cc1cc(C(=O)NC2(C(=O)NCc3ccc(-n4c(-c5noc(C)n5)c(Cl)c5cc(Cl)ccc54)cc3)CC2)no1 [Example 73, 5-Methyl-isoxazole-3-carboxylic acid (1-{4-[3,5-dichloro-2-(5-methyl-[1,2,4]oxadiazol-3-yl)-indol-1-yl]-benzylcarbamoyl}-cyclopropyl)-amide]	< 0.02	< 0.02
Cc1nc(-c2c(Cl)c3cc(Cl)ccc3n2-c2ccc(CNC(=O)C3(NC(=O)c4ccnc(F)c4)CC3)cc2)no1 [Example 74, N-(1-{4-[3,5-Dichloro-2-(5-methyl-[1,2,4]oxadiazol-3-yl)-indol-1-yl]-benzylcarbamoyl}-cyclopropyl)-2-fluoro-isonicotinamide]	< 0.02	< 0.02
